PMC4585798 (Scientific Reports, 2015)
No end group written: not given here.

Legend:
hα9α10[L7H] nAChR = hα9α10[L7H] nAChR (Homo sapiens, UniProt Q9GZZ6+Q9UGM1, L31H); assay: cell-based; format: cell-based
[1] = molecular target: the molecule itself; assay: mass spectrometry before and after reduction and alkylation

hα9α10[L7H] nAChR, sequence (Q9UGM1 26-479 limits assumed, stated change not applied): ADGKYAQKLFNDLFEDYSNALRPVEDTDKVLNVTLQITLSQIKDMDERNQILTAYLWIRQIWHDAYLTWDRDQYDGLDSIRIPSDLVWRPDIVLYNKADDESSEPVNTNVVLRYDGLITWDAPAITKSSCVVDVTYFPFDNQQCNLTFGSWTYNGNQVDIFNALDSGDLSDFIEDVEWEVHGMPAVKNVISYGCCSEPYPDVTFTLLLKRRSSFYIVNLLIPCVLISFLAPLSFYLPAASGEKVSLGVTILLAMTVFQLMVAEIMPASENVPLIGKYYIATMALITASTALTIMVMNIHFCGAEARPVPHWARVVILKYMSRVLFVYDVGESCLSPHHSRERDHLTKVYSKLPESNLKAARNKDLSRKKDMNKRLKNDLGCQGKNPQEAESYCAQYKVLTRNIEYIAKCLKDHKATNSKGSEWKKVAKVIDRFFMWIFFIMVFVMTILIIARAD
hα9α10[L7H] nAChR, sequence (Q9GZZ6 25-450 L31H limits assumed, stated change not applied): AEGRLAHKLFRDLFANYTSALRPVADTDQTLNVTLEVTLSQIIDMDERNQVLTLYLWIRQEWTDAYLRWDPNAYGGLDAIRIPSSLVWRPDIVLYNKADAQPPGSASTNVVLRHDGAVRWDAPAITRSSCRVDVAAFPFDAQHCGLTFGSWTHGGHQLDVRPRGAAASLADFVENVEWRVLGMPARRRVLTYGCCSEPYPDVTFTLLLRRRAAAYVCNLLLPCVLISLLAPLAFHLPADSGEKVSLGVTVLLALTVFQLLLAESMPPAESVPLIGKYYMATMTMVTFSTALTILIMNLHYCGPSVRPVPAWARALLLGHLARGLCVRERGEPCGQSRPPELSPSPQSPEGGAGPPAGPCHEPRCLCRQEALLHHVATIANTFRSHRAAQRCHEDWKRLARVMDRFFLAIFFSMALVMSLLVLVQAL

| Molecule | effect of α10 L7H mutation on inhibitory activity (in words) (hα9α10[L7H] nAChR) | stoichiometry N [1] |
| --- | --- | --- |
| Vc1.1 [reference compound] | not affected by this mutation |  |
| DVHRPCQSVRPGRVWGKCCLTRLCSTMCCARADCTCVYHTWRGHGCSCVM (ends and bridges not checked; cysteine pairing not given here) [αD-conotoxin GeXXA] |  | 2 |
